{
  "source": "patent US5705649A",
  "about": "“Protein staining compositions and methods” (Promega Corporation, priority 1995, dated 1998)",
  "key": {"[1]": {"tested_on": "bovine serum albumin (BSA)", "assay": "Effect of solution pH on absorption in presence and absence of protein", "format": "physicochemical", "experimental": "The effect of solution pH on the absorption of Promega Green 1 in the presence and absence of added protein was studied by dilution of Promega Green 1 solution at a ratio of 1:1000 (v/v) into various solutions containing 0 or 100 μg of protein (bovine serum albumin (BSA)) per ml of liquid. The solutions tested were highly acidic (1N HCl), moderately acidic (2% acetic acid), weakly acidic (50 mM ammonium acetate pH 4.0), weakly basic (50 mM ammonium bicarbonate pH 7.8), and strongly basic (500 mM Tris base). The absorption spectra of the solutions were measured from […] and the peak absorbances are reported below."}, "protein (BSA)": {"tested_on": "protein (BSA)", "assay": "Sensitive solution protein quantitation assay", "parameters": "species or system bovine", "settings": "0.5M tris base, 3 hours", "experimental": "In order to conclusively determine a format for the sensitive quantitation of protein in solution using Promega Green 1, Promega Green 1 stock solution was diluted at ratios of 1:250 (v/v) and 1:1000 (v/v) into 0.5M tris base containing 0, 5, 10, 20, 40, 60, 80, and 100 μg protein (BSA) per ml of solution. […]"}, "[2]": {"tested_on": "Promega Mid-Range Molecular Weight Standards", "assay": "Quantitation of proteins separated by SDS-PAGE, sensitivity overall", "settings": "extracted bands", "experimental": "A 10% SDS-PAGE gel was made as described in the Example 5. Promega Mid-Range Molecular Weight Standards were diluted into loading buffer to produce solutions containing 2.0, 1.0, 0.5, and 0.25 μg of protein per band in 5 μl of solution. Duplicate 5 μl solutions of each of these solutions were loaded into 1 of the 10 sample wells in the gel after the solutions were heated at 95° C. for 10 minutes. The gel was then electrophoresed at 160 V until the running dye just eluted from the bottom of the gel. The gel was destained, and signal from stained protein enhanced, for 90 minutes in 30% methanol, 4% acetic acid.\nOne of the pair of duplicate bands for the 97.4, 66.2, 55.0 and 42.7 kilodalton standards from the lanes containing 2.0, 1.0, 0.5, and 0.25 μg of protein per band were excised with a razor blade as were two control gel segments from regions of the gel not containing protein. The excised segments were placed in individual 1.5 ml Eppendorf tubes containing 2% SDS and allowed to incubate at room temperature for 72 hours. After this time, the solutions were removed from the extracted segments and acetic acid was added to 2% (v/v) final concentration. The absorption of the solutions at […] was then measured."}, "[3]": {"tested_on": "Promega Mid-Range Molecular Weight Standards", "assay": "In-situ staining of proteins during transfer to immobilizing supports", "experimental": "The use of immobilizing supports such as nitrocellulose, nylon, glass or polyvinyl difluoride has become very common in the immunochemical or sequence analysis of proteins. […] Two Whatman 3 mM sheets were soaked in transfer buffer and these components were then used to construct a transfer sandwich composed of one sheet of Whatman paper, the SDS-PAGE gel, the Immobilon sheet, and the final sheet of Whatman. The sandwich was placed in a Hoeffer transfer apparatus and oriented in the apparatus such that the Immobilon side of the sandwich was oriented toward the positive electrode. The apparatus was placed at 4° C. and 10 V were applied to the apparatus for 30 minutes then the voltage was increased to 30 V for an additional 120 minutes.\nThe Immobilon membrane was then soaked in 45% methanol, 5% acetic acid for 2 minutes."}, "bovine serum albumin": {"tested_on": "bovine serum albumin", "assay": "Analysis of partial proteolytic products (Cleveland analysis)", "experimental": "The comparison of proteins by analysis of the products of partial proteolysis using SDS-PAGE electrophoresis has been reported extensively in the literature. This analysis, termed Cleveland analysis, can provide important information on many different types of covalent changes that can occur on proteins.\nAn 8% SDS-PAGE gel was made as described in Example 5. A 5 μl sample of 1× loading buffer containing 4 μg of Bovine serum albumin previously heated at 95° C. for 5 minutes was placed in several of the wells and electrophoresis was performed as described in Example 5.\nA second […] 16% SDS-PAGE gel was made as described in Example 5.\nAfter electrophoresis, segments of the gel containing the BSA sample were excised by use of a razor blade and loaded into three of the sample wells of the second, 16 % gel. Then, 20 μl of 1× loading buffer containing 0.5 μg of Endoprotease Glu C, 0.5 μg of Endoprotease Lys C and 0.1 μg of Alkaline Protease, respectively, was added to individual wells containing the gel slices. Also, 5 μl of a solution of 4 μg of BSA in 1× loading buffer that was previously heated to 95° C. for 15 minutes was placed in a second set of three wells. To each of these three samples was added individual 20 μl solutions containing 0.5 μg of Endoprotease Glu C, 0.5 μg of Endoprotease Lys C, or 0.1 μg of Alkaline Protease, respectively. […]"}, "[4]": {"settings": "moderately acidic (2% acetic acid), protein absent"}, "[5]": {"settings": "moderately acidic (2% acetic acid), protein present (100 μg/ml BSA)"}, "[6]": {"settings": "strongly acidic (1N HCl), protein absent"}, "[7]": {"settings": "strongly acidic (1N HCl), protein present (100 μg/ml BSA)"}, "[8]": {"settings": "strongly basic (500 mM Tris base), protein absent"}, "[9]": {"settings": "strongly basic (500 mM Tris base), protein present (100 μg/ml BSA)"}, "[10]": {"settings": "weakly acidic (50 mM ammonium acetate pH 4.0), protein absent"}, "[11]": {"settings": "weakly acidic (50 mM ammonium acetate pH 4.0), protein present (100 μg/ml BSA)"}, "[12]": {"settings": "weakly basic (50 mM ammonium bicarbonate pH 7.8), protein absent"}, "[13]": {"settings": "weakly basic (50 mM ammonium bicarbonate pH 7.8), protein present (100 μg/ml BSA)"}},
  "data": [
    {"smiles": "CCCCCCCC(=O)N(c1ccc(OCC)cc1)c1ccc(C(=C2C=CC(=[N+](CC)Cc3cccc(S(=O)(=O)[O-])c3)C=C2)c2ccc(N(CC)Cc3cccc(S(=O)(=O)O)c3)cc2)cc1", "note": "[Promega Green 1]", "values": [
      {"measurement": "ABS (peak absorbance)", "setting": "[1]; [4]", "result": 0.83},
      {"measurement": "absorption max", "setting": "[1]; [4]", "result": 631, "unit": "nm"},
      {"measurement": "ABS (peak absorbance)", "setting": "[1]; [5]", "result": 0.98},
      {"measurement": "absorption max", "setting": "[1]; [5]", "result": 635, "unit": "nm"},
      {"measurement": "ABS (peak absorbance)", "setting": "[1]; [6]", "result": 0.27},
      {"measurement": "absorption max", "setting": "[1]; [6]", "result": 649, "unit": "nm"},
      {"measurement": "ABS (peak absorbance)", "setting": "[1]; [7]", "result": 0.39},
      {"measurement": "absorption max", "setting": "[1]; [7]", "result": 641, "unit": "nm"},
      {"measurement": "ABS (peak absorbance)", "setting": "[1]; [8]", "result": 0.22},
      {"measurement": "absorption max", "setting": "[1]; [8]", "result": 637, "unit": "nm"},
      {"measurement": "ABS (peak absorbance)", "setting": "[1]; [9]", "result": 0.128},
      {"measurement": "absorption max", "setting": "[1]; [9]", "result": 637, "unit": "nm"},
      {"measurement": "ABS (peak absorbance)", "setting": "[1]; [10]", "result": 0.49},
      {"measurement": "absorption max", "setting": "[1]; [10]", "result": 636, "unit": "nm"},
      {"measurement": "ABS (peak absorbance)", "setting": "[1]; [11]", "result": 0.25},
      {"measurement": "absorption max", "setting": "[1]; [11]", "result": 638, "unit": "nm"},
      {"measurement": "ABS (peak absorbance)", "setting": "[1]; [12]", "result": 0.49},
      {"measurement": "absorption max", "setting": "[1]; [12]", "result": 636, "unit": "nm"},
      {"measurement": "ABS (peak absorbance)", "setting": "[1]; [13]", "result": 0.26},
      {"measurement": "absorption max", "setting": "[1]; [13]", "result": 637, "unit": "nm"},
      {"measurement": "Absorption", "setting": "protein (BSA); dye 1:250, protein 0 μg/ml", "result": 0.543},
      {"measurement": "Absorption", "setting": "protein (BSA); dye 1:250, protein 5 μg/ml", "result": 0.515},
      {"measurement": "Absorption", "setting": "protein (BSA); dye 1:250, protein 10 μg/ml", "result": 0.472},
      {"measurement": "Absorption", "setting": "protein (BSA); dye 1:250, protein 20 μg/ml", "result": 0.427},
      {"measurement": "Absorption", "setting": "protein (BSA); dye 1:250, protein 40 μg/ml", "result": 0.386},
      {"measurement": "Absorption", "setting": "protein (BSA); dye 1:250, protein 60 μg/ml", "result": 0.358},
      {"measurement": "Absorption", "setting": "protein (BSA); dye 1:250, protein 80 μg/ml", "result": 0.342},
      {"measurement": "Absorption", "setting": "protein (BSA); dye 1:250, protein 100 μg/ml", "result": 0.317},
      {"measurement": "Absorption", "setting": "protein (BSA); dye 1:1000, protein 0 μg/ml", "result": 0.079},
      {"measurement": "Absorption", "setting": "protein (BSA); dye 1:1000, protein 5 μg/ml", "result": 0.069},
      {"measurement": "Absorption", "setting": "protein (BSA); dye 1:1000, protein 10 μg/ml", "result": 0.059},
      {"measurement": "Absorption", "setting": "protein (BSA); dye 1:1000, protein 20 μg/ml", "result": 0.051},
      {"measurement": "Absorption", "setting": "protein (BSA); dye 1:1000, protein 40 μg/ml", "result": 0.048},
      {"measurement": "Absorption", "setting": "protein (BSA); dye 1:1000, protein 60 μg/ml", "result": 0.047},
      {"measurement": "Absorption", "setting": "protein (BSA); dye 1:1000, protein 80 μg/ml", "result": 0.044},
      {"measurement": "Absorption", "setting": "protein (BSA); dye 1:1000, protein 100 μg/ml", "result": 0.043},
      {"measurement": "lowest amount of protein measured quantitatively", "setting": "[2]", "result": 250, "unit": "ng"},
      {"measurement": "visibility of bands on membrane after enhancement", "setting": "[3]; 45% methanol, 5% acetic acid, 2 minutes", "result": "the protein band at all concentrations became easily visible"},
      {"measurement": "lowest protein per band visible on Immobilon membrane after transfer", "setting": "[3]; before enhancement", "result": 1.0, "unit": "µg"},
      {"measurement": "visibility of partial proteolytic pattern", "setting": "bovine serum albumin; 30% methanol, 4% acetic acid enhancement", "result": "readily apparent in a very short period of time"},
      {"measurement": "interference with Cleveland type protein analysis", "setting": "bovine serum albumin; Endoprotease Glu C, Endoprotease Lys C, Alkaline Protease", "result": "does not interfere with Cleveland type protein analysis"}
    ]}
  ]
}
